# Measured values published in patent publication US7674810B2, “1,1-dioxo-1H-1Λ6-benzo[d]isothiazol-3-yl)-4-hydroxy-1,5-dihydro-pyrrol-2-one inhibitors of HCV polymerase” (Roche Palo Alto LLC, priority 2006, dated 2010).
row,SMILES,melting point
1,COc1ncc(-c2cccc3c2S(=O)(=O)N=C3C2=C(O)[C@H](C(C)(C)C)N(Cc3ccc(F)cc3)C2=O)cn1,> 250 °C
2,CC(C)(C)[C@H]1C(O)=C(C2=NS(=O)(=O)c3ccccc32)C(=O)N1Cc1ccc(F)c(C2CC2)c1,71 to 85 °C
3,Cc1cc(CN2C(=O)C(C3=NS(=O)(=O)c4c(CNS(=O)(=O)N5CCC(S(C)(=O)=O)C5)cccc43)=C(O)[C@@H]2C(C)(C)C)ccc1F (stereo partly shown),124 to 137 °C
4,O=C1C(C2=NS(=O)(=O)c3ccccc32)=C(O)[C@H](c2ccccc2)N1Cc1ccc(F)cc1,145 to 155 °C
5,CS(=O)(=O)Nc1cccc(-c2cccc3c2S(=O)(=O)N=C3c2nc(Cc3ccc(F)cc3)c3ccccc3c2O)c1,> 275 °C
6,Cc1ccc2c(Cc3ccc(F)cc3)nc(C3=NS(=O)(=O)c4ccccc43)c(O)c2c1,> 275 °C
7,CC(C)(C)[C@H]1C(O)=C(C2=NS(=O)(=O)c3c2ccc2ccccc32)C(=O)N1Cc1ccc(F)cc1,205 °C (dec.)
8,COc1cccc2c1S(=O)(=O)N=C2C1=C(O)[C@H](C(C)(C)C)N(Cc2ccc(F)cc2)C1=O,224 to 235 °C
9,COc1cc(CN2C(=O)C(C3=NS(=O)(=O)c4ccccc43)=C(O)[C@@H]2C(C)(C)C)ccc1F,92 to 104 °C
10,CC(C)(C)[C@H]1C(O)=C(C2=NS(=O)(=O)c3c(CNS(=O)(=O)N4CC[C@H](O)C4)cccc32)C(=O)N1Cc1ccc(F)cc1,> 250 °C
11,CC(=O)NC1CCN(S(=O)(=O)NCc2cccc3c2S(=O)(=O)N=C3C2=C(O)[C@H](C(C)(C)C)N(Cc3ccc(F)c(C)c3)C2=O)C1 (stereo partly shown),239 to 259 °C
12,CC(C)(C)[C@H]1C(O)=C(C2=NS(=O)(=O)c3c2cccc3-c2ccc(=O)[nH]c2)C(=O)N1Cc1ccc(F)cc1,> 275 °C
13,COc1ccc(-c2cccc3c2S(=O)(=O)N=C3C2=C(O)[C@H](C(C)(C)C)N(Cc3ccc(F)cc3)C2=O)cn1,185 to 190 °C
14,CN(C)C(=O)COc1cccc2c1S(=O)(=O)N=C2C1=C(O)[C@H](C(C)(C)C)N(Cc2ccc(F)cc2)C1=O,137 °C
15,O=S1(=O)N=C(c2nc(Cc3ccc(F)cc3)c3ccccc3c2O)c2cccc(-c3ccc(F)cc3)c21,> 275 °C
16,CC(C)(C)[C@H]1C(O)=C(C2=NS(=O)(=O)c3c(NCC(N)=O)cccc32)C(=O)N1Cc1ccc(F)cc1.N,> 250 °C
17,CC(C)(C)[C@H]1C(O)=C(C2=NS(=O)(=O)c3c2cccc3-c2cccc(=O)[nH]2)C(=O)N1Cc1ccc(F)cc1,> 250 °C
18,CC(C)(C)[C@H]1C(O)=C(C2=NS(=O)(=O)c3c(CS(N)(=O)=O)cccc32)C(=O)N1Cc1ccc(F)cc1,159 to 173 °C
19,CC(C)(C)[C@H]1C(O)=C(C2=NS(=O)(=O)c3c(CNS(C)(=O)=O)cccc32)C(=O)N1Cc1ccc(F)c(Br)c1,138 to 159 °C
20,CNC(=O)COc1cccc2c1S(=O)(=O)N=C2C1=C(O)[C@H](C(C)(C)C)N(Cc2ccc(F)cc2)C1=O,> 210 °C
21,CCC(=O)N(Cc1cccc2c1S(=O)(=O)N=C2C1=C(O)[C@H](C(C)(C)C)N(Cc2ccc(F)c(C)c2)C1=O)S(C)(=O)=O,98 to 99.8 °C
22,CC(=O)Nc1cccc(-c2cccc3c2S(=O)(=O)N=C3C2=C(O)[C@H](C(C)(C)C)N(Cc3ccc(F)cc3)C2=O)c1,255 to 260 °C
23,CC(C)COc1cccc2c1S(=O)(=O)N=C2C1=C(O)[C@H](C(C)(C)C)N(Cc2ccc(F)cc2)C1=O,99 to 106 °C
24,CC(C)(C)[C@H]1C(O)=C(C2=NS(=O)(=O)c3c2cccc3-c2cn[nH]c2)C(=O)N1Cc1ccc(F)cc1,> 250 °C

row,SMILES,melting point
1,CCOC(=O)CNc1cccc2c1S(=O)(=O)N=C2C1=C(O)[C@H](C(C)(C)C)N(Cc2ccc(F)cc2)C1=O,148 to 152 °C
2,CNC(=O)CNCc1cccc2c1S(=O)(=O)N=C2C1=C(O)[C@H](C(C)(C)C)N(Cc2ccc(F)cc2)C1=O,175 to 180 °C
3,O=S1(=O)N=C(c2nc(Cc3ccc(F)cc3)c3ccc(F)cc3c2O)c2ccccc21,> 275 °C
4,CC(C)(C)C1C(O)=C(C2=NS(=O)(=O)c3c(Cl)cccc32)C(=O)N1Cc1ccc(F)cc1 (stereo not shown),179 to 213 °C
5,O=S1(=O)N=C(c2nc(Cc3ccc(F)cc3)c3ccccc3c2O)c2cccc(-c3cccc(F)c3)c21,> 275 °C
6,CC(C)CCc1nc(C2=NS(=O)(=O)c3ccccc32)c(O)c2ccccc12,206 to 209 °C
7,CC(C)(C)[C@H]1C(O)=C(C2=NS(=O)(=O)c3ccccc32)C(=O)N1CCC1CC1,135 to 140 °C
8,CC(C)C[C@@H]1C(O)=C(C2=NS(=O)(=O)c3ccccc32)C(=O)N1Cc1ccc(F)cc1,200 °C (dec.)
9,CC(C)(C)[C@H]1C(O)=C(C2=NS(=O)(=O)c3c(N)cccc32)C(=O)N1Cc1ccc(F)cc1,155 to 160 °C
10,CC(C)(C)[C@H]1C(O)=C(C2=NS(=O)(=O)c3ccccc32)C(=O)N1Cc1ccc(=O)[nH]c1,149 to 190 °C
11,CC(C)(C)[C@H]1C(O)=C(C2=NS(=O)(=O)c3c(NS(C)(=O)=O)cccc32)C(=O)N1Cc1ccc(F)cc1,245 to 250 °C
12,CS(=O)(=O)Nc1ccc2c(c1)S(=O)(=O)N=C2c1nc(Cc2ccc(F)cc2)c2ccccc2c1O,> 275 °C
13,Cc1cc(CN2C(=O)C(C3=NS(=O)(=O)c4c(CNS(=O)(=O)N5CCC(N)C5)cccc43)=C(O)[C@@H]2C(C)(C)C)ccc1F.O=C(O)C(F)(F)F (stereo partly shown),128 to 134 °C
14,CC(C)CC1C(O)=C(C2=NS(=O)(=O)c3ccccc32)C(=O)N1Cc1ccc(F)cc1 (stereo not shown),200 °C (dec.)
15,CC(C)(C)[C@H]1C(O)=C(C2=NS(=O)(=O)c3c2cccc3-c2cnc(=O)[nH]c2)C(=O)N1Cc1ccc(F)cc1,> 260 °C
16,CC(C)(C)[C@H]1C(O)=C(C2=NS(=O)(=O)c3c(CN4CCCS4(=O)=O)cccc32)C(=O)N1Cc1ccc(F)cc1,224 to 230 °C
17,CC(C)(C)[C@H]1C(O)=C(C2=NS(=O)(=O)c3c(CCS(C)(=O)=O)cccc32)C(=O)N1Cc1ccc(F)cc1,127 to 135 °C
18,CC(C)(C)C1C(O)=C(C2=NS(=O)(=O)c3ccccc32)C(=O)N1Cc1ccc(F)cc1 (stereo not shown),> 220 °C
19,CC[C@H](C)[C@H]1C(O)=C(C2=NS(=O)(=O)c3ccccc32)C(=O)N1Cc1ccc(F)cc1,155 to 160 °C
20,CC(C)(C)C1C(O)=C(C2=NS(=O)(=O)c3c(OCC(N)=O)cccc32)C(=O)N1Cc1ccc(F)cc1 (stereo not shown),> 250 °C
21,CC(C)(C)[C@H]1C(O)=C(C2=NS(=O)(=O)c3ccccc32)C(=O)N1Cc1ccc(F)c(C#N)c1,105 to 112 °C
22,O=S1(=O)N=C(c2nc(Cc3ccc(F)cc3)c3ccccc3c2O)c2cccc(N3CCOCC3)c21,259 to 261 °C
23,CNC(=O)CN(Cc1cccc2c1S(=O)(=O)N=C2C1=C(O)[C@H](C(C)(C)C)N(Cc2ccc(F)cc2)C1=O)C(C)=O,150 to 154 °C
24,CS(=O)(=O)Nc1cccc2c1S(=O)(=O)N=C2c1nc(Cc2ccc(F)cc2)c2ccccc2c1O,> 275 °C

row,SMILES,melting point
1,CC(C)C[C@H]1C(O)=C(C2=NS(=O)(=O)c3ccccc32)C(=O)N1Cc1ccc(F)cc1,200 °C (dec.)
2,CN(C)C(=O)CNc1cccc2c1S(=O)(=O)N=C2C1=C(O)[C@H](C(C)(C)C)N(Cc2ccc(F)cc2)C1=O,185 to 190 °C
3,COc1ccc(-c2cccc3c2S(=O)(=O)N=C3c2nc(Cc3ccc(F)cc3)c3ccccc3c2O)cn1,194 to 196 °C
4,Cc1nc(S(=O)(=O)NCc2cccc3c2S(=O)(=O)N=C3C2=C(O)[C@H](C(C)(C)C)N(Cc3ccc(F)cc3)C2=O)cn1C.O=C(O)C(F)(F)F,110 to 116 °C
5,CNC(=O)NCc1cccc2c1S(=O)(=O)N=C2C1=C(O)[C@H](C(C)(C)C)N(Cc2ccc(F)cc2)C1=O,> 250 °C
6,CC(C)(C)[C@H]1C(O)=C(C2=NS(=O)(=O)c3ccccc32)C(=O)N1Cc1ccc(F)c(F)c1,80 to 89 °C
7,CC(C)(C)[C@H]1C(O)=C(C2=NS(=O)(=O)c3ccccc32)C(=O)N1Cc1ccccc1,170 to 179 °C
8,CC(C)(C)[C@H]1C(O)=C(C2=NS(=O)(=O)c3c(CNS(=O)(=O)N4CCCC4)cccc32)C(=O)N1Cc1ccc(F)cc1,112 to 125 °C
9,CCc1cc(CN2C(=O)C(C3=NS(=O)(=O)c4ccccc43)=C(O)[C@@H]2C(C)(C)C)ccc1F,205 to 210 °C
10,CN(Cc1cccc2c1S(=O)(=O)N=C2C1=C(O)[C@H](C(C)(C)C)N(Cc2ccc(F)cc2)C1=O)S(=O)(=O)N1CCNCC1.O=C(O)C(F)(F)F,113 to 128 °C
11,O=S1(=O)N=C(c2nc(Cc3ccc(F)cc3)c3ccc(F)cc3c2O)c2cccc(Cl)c21,> 275 °C
12,CC(C)(C)[C@H]1C(O)=C(C2=NS(=O)(=O)c3c(CNS(=O)(=O)C4CC4)cccc32)C(=O)N1Cc1ccc(F)cc1,102 to 105 °C
13,CC(=O)N1CCN(S(=O)(=O)NCc2cccc3c2S(=O)(=O)N=C3C2=C(O)[C@H](C(C)(C)C)N(Cc3ccc(F)cc3)C2=O)CC1,248 to 260 °C
14,CC(C)[C@H]1C(O)=C(C2=NS(=O)(=O)c3ccccc32)C(=O)N1Cc1ccc(F)cc1,95 to 110 °C
15,CC(C)(C)[C@H]1C(O)=C(C2=NS(=O)(=O)c3c(CNS(=O)(=O)N4CCOCC4)cccc32)C(=O)N1Cc1ccc(F)cc1,118 to 129 °C
16,Cc1cc(CN2C(=O)C(C3=NS(=O)(=O)c4c(CNS(C)(=O)=O)cccc43)=C(O)C2c2ccc(F)cc2)ccc1F (stereo not shown),> 250 °C
17,CC(C)(C)[C@H]1C(O)=C(C2=NS(=O)(=O)c3c2cccc3-c2cncnc2)C(=O)N1Cc1ccc(F)cc1,> 250 °C
18,CN(C)S(=O)(=O)NCc1cccc2c1S(=O)(=O)N=C2C1=C(O)[C@H](C(C)(C)C)N(Cc2ccc(F)cc2)C1=O,102 to 115 °C
19,CC(C)(C)[C@H]1C(O)=C(C2=NS(=O)(=O)c3ccccc32)C(=O)N1Cc1cccs1,105 to 123 °C
20,O=C1C(C2=NS(=O)(=O)c3ccccc32)=C(O)[C@H](C2CCCCC2)N1Cc1ccccc1,104 to 106 °C
21,CC(C)(C)[C@H]1C(O)=C(C2=NS(=O)(=O)c3c2cccc3-c2cccnc2)C(=O)N1Cc1ccc(F)cc1,> 275 °C
22,CC(C)(C)[C@H]1C(O)=C(C2=NS(=O)(=O)c3ccccc32)C(=O)N1Cc1ccc(F)c(C(F)(F)F)c1,85 to 91 °C
